Data on 8 compounds can be found in ChEMBL document CHEMBL1142923, “Novel chiral isoxazole derivatives: synthesis and pharmacological characterization at human beta-adrenergic receptor subtypes” (Bioorg Med Chem, 2007).

A word on the Ki: it is a measure of affinity in units of concentration, obtained from inhibition or displacement.

The target in experiment [1] is Beta-1 adrenergic receptor (Homo sapiens, UniProt P08588). The experiment in a line: Displacement of [125I]CYP from human adrenergic beta 1 receptor transfected in CHO cells in presence of 100 uM GTP. It is filed as cell-based. In general terms: Displacement assays read how much labelled ligand stays bound in the presence of the test substance.
Experiment [2] concerns the target T1, Beta-3 adrenergic receptor (Homo sapiens, UniProt P13945). Nature of the experiment: Efficacy at human adrenergic beta 3 receptor transfected in CHO cells assessed as stimulation of adenylyl cyclase at 100 uM relative to isoproterenol. The experiment is classed as functional, cell-based.
Target sequence in this assay (P13945 whole entry, looked up): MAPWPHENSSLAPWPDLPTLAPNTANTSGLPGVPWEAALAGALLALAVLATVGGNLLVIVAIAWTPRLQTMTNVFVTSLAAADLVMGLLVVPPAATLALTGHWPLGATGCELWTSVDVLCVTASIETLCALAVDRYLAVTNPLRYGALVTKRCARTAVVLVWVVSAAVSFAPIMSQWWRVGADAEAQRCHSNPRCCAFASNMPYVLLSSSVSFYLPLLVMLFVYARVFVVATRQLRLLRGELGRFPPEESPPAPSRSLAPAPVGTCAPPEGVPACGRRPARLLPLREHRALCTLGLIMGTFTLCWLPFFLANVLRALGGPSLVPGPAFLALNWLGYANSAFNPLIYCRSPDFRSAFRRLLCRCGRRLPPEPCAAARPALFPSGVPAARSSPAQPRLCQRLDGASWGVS
The target in experiment [3] is T1, Beta-3 adrenergic receptor. Nature of the experiment: Displacement of [125I]CYP from human adrenergic beta 3 receptor transfected in CHO cells in presence of 100 uM GTP. The experiment is classed as cell-based.
Target sequence in this assay (P13945 whole entry): as the sequence (P13945 whole entry, looked up) above
The target of experiment [4] is Beta-2 adrenergic receptor (Homo sapiens, UniProt P07550). The experiment in a line: Displacement of [125I]CYP from human adrenergic beta 2 receptor transfected in CHO cells in presence of 100 uM GTP. It is filed as cell-based.
Chain of Beta-2 adrenergic receptor (P07550 whole entry): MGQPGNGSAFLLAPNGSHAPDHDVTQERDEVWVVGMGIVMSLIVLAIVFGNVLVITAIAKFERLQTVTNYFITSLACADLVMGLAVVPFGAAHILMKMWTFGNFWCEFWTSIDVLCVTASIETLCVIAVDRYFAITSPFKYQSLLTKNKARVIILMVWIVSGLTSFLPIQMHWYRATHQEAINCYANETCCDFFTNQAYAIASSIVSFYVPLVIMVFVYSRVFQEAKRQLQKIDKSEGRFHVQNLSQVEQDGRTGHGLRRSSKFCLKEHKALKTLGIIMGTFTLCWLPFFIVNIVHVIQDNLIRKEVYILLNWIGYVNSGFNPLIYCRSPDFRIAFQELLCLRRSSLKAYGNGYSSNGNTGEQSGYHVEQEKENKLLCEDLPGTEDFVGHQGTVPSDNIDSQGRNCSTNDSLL

Chain of Beta-1 adrenergic receptor (P08588 whole entry): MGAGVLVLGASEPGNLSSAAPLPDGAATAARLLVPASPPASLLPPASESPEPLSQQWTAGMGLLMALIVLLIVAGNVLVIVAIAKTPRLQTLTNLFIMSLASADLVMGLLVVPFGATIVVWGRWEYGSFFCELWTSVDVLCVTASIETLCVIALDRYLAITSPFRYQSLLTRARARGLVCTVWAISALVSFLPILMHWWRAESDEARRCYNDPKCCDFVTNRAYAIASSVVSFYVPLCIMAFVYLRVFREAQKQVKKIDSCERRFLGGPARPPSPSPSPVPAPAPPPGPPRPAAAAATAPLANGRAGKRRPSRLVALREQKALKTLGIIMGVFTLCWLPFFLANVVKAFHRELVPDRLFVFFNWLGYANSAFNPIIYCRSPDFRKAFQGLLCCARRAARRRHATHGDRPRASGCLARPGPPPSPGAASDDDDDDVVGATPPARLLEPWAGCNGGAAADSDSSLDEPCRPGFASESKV

Turning to `C[C@H](Cc1ccc(OCC(=O)O)cc1)NC[C@@H](O)c1cc(Br)no1`, the Ki is 6460 nM in experiment [1], over 50 µM in experiment [3] and 501 nM in experiment [4]. The Efficacy in experiment [2] was 34%.

As to `CCOC(=O)COc1ccc(C[C@@H](C)NC[C@H](O)c2cc(Br)no2)cc1`, the Ki in experiment [1] amounted to 23.2 nM; in experiment [3], 10.1 µM; in experiment [4], 2.82 nM. Moreover, the Efficacy in experiment [2] was 56%.

On to `CCCCOc1ccc(C[C@@H](C)NC[C@H](O)c2cc(Br)no2)cc1`, for which the Ki in experiment [1] turned out to be 66.7 nM; in experiment [3], 2.49 µM; in experiment [4], 15.5 nM. Besides, the Efficacy in experiment [2] is 51%.

Take `CC(C)(C)NCC(O)c1cc(NS(C)(=O)=O)no1` (racemic): the values for the Ki in experiment [1], in experiment [3] and in experiment [4] were over 100000 nM, over 100 µM and over 100000 nM, respectively.

`CCOC(=O)COc1ccc(C[C@@H](C)NC[C@@H](O)c2cc(Br)no2)cc1`: the Ki was 1110 nM in experiment [1], 21.8 µM in experiment [3] and 81.4 nM in experiment [4]. Moreover, the Efficacy in experiment [2] was 39%.

Regarding `C[C@H](Cc1ccc(OCC(=O)O)cc1)NC[C@H](O)c1cccc(Cl)c1` (racemic), the Ki in experiment [4] amounted to 2850 nM.

As to `CCCCOc1ccc(C[C@@H](C)NC[C@@H](O)c2cc(Br)no2)cc1`, the Ki in experiment [1] was found to be 2160 nM; in experiment [3], 10.7 µM; in experiment [4], 458 nM. Moreover, the Efficacy in experiment [2] is 31%.

For `C[C@H](Cc1ccc(OCC(=O)O)cc1)NC[C@H](O)c1cc(Br)no1`, the values for the Ki in experiment [1], in experiment [3] and in experiment [4] were 61.1 nM, 22 µM and 13.9 nM, respectively. Moreover, the Efficacy in experiment [2] came to 50%.
